Source: patent US11317629B2, “Liquid composition comprising mefentrifluconazole” (SUMITOMO CHEMICAL COMPANY, LIMITED, priority 2019, dated 2022)

What was measured:
corn (variety: Pioneer) [1] = experiment: Phytotoxicity Test Example 1: compositions dripped into the whorl of corn plants, plant length; type: in vivo; details: 10,000 ppm
Experimental: Liquid compositions comprising 10,000 ppm of mefentrifluconazole, 1.25 or 10% by volume of an oil adjuvant and water (hereinafter referred to as Present Composition 7 and Present Composition 8) were prepared by diluting mefentrifluconazole SC and an oil adjuvant (COC: Agri-Dex, containing 82% of heavy range paraffinic oil, 17% of surfactant, and 1% of other components, manufactured by Helena), respectively, with water and mixing them. Similarly to the Present Composition 7 and 8, liquid compositions (hereinafter referred to as Present Composition 9 and Present Composition 10) were prepared by replacing Agri-Dex with Sundance II (MSO, containing 90% of methylated seed oil and 10% of alkyl and aryl alkoxylates and phosphate esters). […]
A soil was filled into a plastic pot, and corn (variety: Pioneer) was seeded therein, and grown in a greenhouse for 4 days. […] After dripping, the plants were placed in the greenhouse for 8 days, then the plant lengths were measured. […]
From the plant lengths in each of the treated plants and the non-treated plants, the relative length of the compositions was determined according to the following “Formula 2”. […]

corn (variety: Pioneer) [2] = experiment: Phytotoxicity Test Example 2: compositions sprayed onto corn plants, plant length; type: in vivo; details: 2,000 ppm
Experimental: A liquid composition comprising 2,000 ppm of mefentrifluconazole, 10% by volume of an oil adjuvant and water (hereinafter referred to as Present Composition 13) were prepared by diluting mefentrifluconazole SC and an oil adjuvant (COC: Agri-Dex, containing 82% of heavy range paraffinic oil, 17% of surfactant, and 1% of other components, manufactured by Helena) with water and mixing them. Similarly to the Present Composition 13, a liquid compositions (hereinafter referred to as Present Composition 14) were prepared by replacing Agri-Dex with Sundance II (MSO, containing 90% of methylated seed oil and 10% of alkyl and aryl alkoxylates and phosphate esters). Similarly to the Present Composition 13, a liquid composition (hereinafter referred to as Present Composition 15) were prepared by replacing Agri-Dex with Destiny (HSOC, containing 50% of methylated seed oil, 42% of sorbitan fatty acid esters and high fructose corn syrup, and 8% of other ingredients). […]
A soil was filled into a plastic pot, and corn (variety: Pioneer) was seeded therein, and grown in a greenhouse for 4 days. […] After spraying, the plants were placed in the greenhouse for 8 days, then the plant lengths were measured. […]
From the plant lengths in each of the treated plants and the non-treated plants, the relative length of the compositions was determined according to the above “Formula 2”.

## N#CC(CCc1ccc(Cl)cc1)(Cn1cncn1)c1ccccc1 (stereo not shown) [fenbuconazole]
Corn (variety: Pioneer) [1]; oil adjuvants 1.25 or 10% by volume
  Effect of addition of oil adjuvants on retardation of corn plant: severely enhanced the retardation
Corn (variety: Pioneer) [1]; without adjuvant
  Retardation of corn plant without adjuvant: retarded corn plant slightly
Corn (variety: Pioneer) [2]; oil adjuvants 10% by volume
  Effect of addition of oil adjuvants on corn plant length: enhanced the retardation
Corn (variety: Pioneer) [2]; without adjuvant
  Effect on plant length without adjuvant: did not effect on plant length
